Test results from US9839642B2, “Beta-tetrazolyl-propionic acids as metallo-beta-lactamase inhibitors” (priority 2014, dated 2017).
Like-named read-outs stand apart in the source and are kept apart here.

Legend:
NDM-1 = NDM-1 (Klebsiella pneumoniae, UniProt C7C422); test: Enzyme activity: determination of IC50, fluorescence assay with CCF2-FA substrate; type: biochemical; conditions: CCF2-FA 1.25 μM, 2 hours at 25° C.
Method in brief: (§1)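 Enzyme (1 pM NDM-1, 2 pM IMP-1, 30 pM VIM-1) incubated with inhibitor (20 to 0.00063 μM) and 1.25 μM CCF2-FA in 100 mM KH2PO4 pH 7, 0.005% Tween-20, 10 μM ZnSO4, 2 h at 25 °C. Fluorescence read at 460 nm (ex 405 nm); IC50 by 4-parameter fit.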

VIM-1 = VIM-1 (Pseudomonas aeruginosa, UniProt A0A0F7KYQ8); test: as above; type: biochemical; conditions: CCF2-FA 1.25 μM, 2 hours at 25° C., read-out: VIM1 IC50
Method in brief: as §1

IMP-1 = IMP-1 (Serratia marcescens, UniProt P52699); test: as above; type: biochemical; conditions: CCF2-FA 1.25 μM, 2 hours at 25° C., read-out: IMP1 IC50
Sequence of IMP-1 (P52699 19-246, looked up, species assumed): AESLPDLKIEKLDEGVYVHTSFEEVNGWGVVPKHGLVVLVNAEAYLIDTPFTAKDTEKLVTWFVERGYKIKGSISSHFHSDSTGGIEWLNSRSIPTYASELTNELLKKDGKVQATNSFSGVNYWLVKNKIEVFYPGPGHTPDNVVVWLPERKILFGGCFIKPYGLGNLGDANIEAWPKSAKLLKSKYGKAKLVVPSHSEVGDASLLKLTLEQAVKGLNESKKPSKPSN
Method in brief: as §1

[1] = system: Escherichia coli expressing NDM-1 (CLB30005); test: Antibiotic potentiation activity: synergistic concentration (MITC95) with imipenem, growth by OD600; type: cell-based; conditions: 95% inhibition of bacterial growth, strain CLB30005
Method in brief: (§2)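 Strains grown overnight at 35° C, resuspended in saline, diluted 1:100 into 1.1×CAMHB; imipenem at 1 μg/ml or 4 μg/ml with test compound 200 μM to 0.195 μM. Incubated 22 hours to 24 hours at 35° C, OD600 read; MITC95 is lowest compound concentration inhibiting 95% of growth.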

[2] = system: Klebsiella pneumoniae expressing VIM-1 (IHMA599644); test: as above; type: cell-based
Method in brief: as §2

[3] = system: Serratia marcescens expressing IMP-1 (CL5741); test: as above; type: cell-based
Method in brief: as §2

[4] = system: Escherichia coli expressing NDM-1 (CLB30016); test: as above; type: cell-based; conditions: E. coli CLB30016 (NDM-1), 95% inhibition of growth
Method in brief: as §2

[5] = enzyme 1 pM, read-out: NDM1 IC50
[6] = 95% inhibition of bacterial growth, strain IHMA599644
[7] = 95% inhibition of bacterial growth, strain CL5741
[8] = NDM-1 enzyme 1 pM, read-out: NDM1 IC50
[9] = K. pneumoniae IHMA599644 (VIM-1), 95% inhibition of growth
[10] = S. marcescens CL5741 (IMP-1), 95% inhibition of growth

Sequence of NDM-1 (C7C422 29-270, looked up, species assumed): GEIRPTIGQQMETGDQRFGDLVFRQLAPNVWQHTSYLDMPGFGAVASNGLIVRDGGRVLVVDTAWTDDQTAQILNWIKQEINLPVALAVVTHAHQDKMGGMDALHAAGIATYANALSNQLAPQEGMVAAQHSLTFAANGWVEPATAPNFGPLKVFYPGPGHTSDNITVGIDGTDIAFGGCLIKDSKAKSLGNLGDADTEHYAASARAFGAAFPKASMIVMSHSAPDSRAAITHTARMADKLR

## CC(C)=CCCC(C(=O)O)[C@H](Cc1ccccc1)c1nnn[nH]1 (stereo in doubt) [Example 15, (2R)-6-methyl-2-[(1S)-2-phenyl-1-(1H-tetrazol-5-yl)ethyl]hept-5-enoic acid]
NDM-1; [5]
  IC50: 380 nM
VIM-1; enzyme 30 pM
  IC50: 120 nM
IMP-1; enzyme 2 pM
  IC50: 4800 nM
[1]
  NDM1 EC30005 MITC95: 15.6 µM
[2]; [6]
  VIM1 KP599644 MITC95: 200 µM
[3]; [7]
  IMP1 SM5741 MITC95: >200 µM

## CCCCC(C(=O)O)[C@@H](Cc1ccc(-c2ccc(S(C)(=O)=O)cc2)cc1)c1nn[nH]n1 (stereo in doubt) [Example 183, (2R)-2-[(1R)-2-[4′-(methylsulfonyl)biphenyl-4-yl]-1-(2H-tetrazol-5-yl)ethyl]hexanoic acid]
NDM-1; [5]
  IC50: 660 nM
VIM-1; enzyme 30 pM
  IC50: 700 nM
IMP-1; enzyme 2 pM
  IC50: 200 nM
[1]
  NDM1 EC30005 MITC95: >200 µM
[2]; [6]
  VIM1 KP599644 MITC95: >200 µM
[3]; [7]
  IMP1 SM5741 MITC95: >200 µM

## CC(C)CCC[C@H](C(=O)O)[C@H](Cc1ccccc1)c1nnn[nH]1 [Example 1, (S)-6-Methyl-2-((S)-2-phenyl-1-(1H-tetrazol-5-yl)ethyl)heptanoic acid]
NDM-1; [5]
  IC50: 870 nM
VIM-1; enzyme 30 pM
  IC50: > 20000 nM
IMP-1; enzyme 2 pM
  IC50: 280 nM
[1]
  NDM1 EC30005 MITC95: 75 µM
[2]; [6]
  VIM1 KP599644 MITC95: >200 µM
[3]; [7]
  IMP1 SM5741 MITC95: 138 µM

## CC(C)CCC[C@@H](C(=O)O)[C@H](Cc1ccccc1)c1nnn[nH]1 [Example 2, (R)-6-methyl-2-((S)-2-phenyl-1-(1H-tetrazol-5-yl)ethyl)heptanoic acid]
NDM-1; [5]
  IC50: 5400 nM
VIM-1; enzyme 30 pM
  IC50: 8200 nM
IMP-1; enzyme 2 pM
  IC50: 68 nM
[1]
  NDM1 EC30005 MITC95: >200 µM
[2]; [6]
  VIM1 KP599644 MITC95: >200 µM
[3]; [7]
  IMP1 SM5741 MITC95: 100 µM

## O=C(O)[C@@H](Cc1ccccc1)[C@H](Cc1ccccc1)c1nnn[nH]1 [Example 3, (2S,3S)-2-benzyl-4-phenyl-3-(1H-tetrazol-5-yl)butanoic acid]
NDM-1; [5]
  IC50: 350 nM
VIM-1; enzyme 30 pM
  IC50: 640 nM
IMP-1; enzyme 2 pM
  IC50: 550 nM
[1]
  NDM1 EC30005 MITC95: 200 µM
[2]; [6]
  VIM1 KP599644 MITC95: >200 µM
[3]; [7]
  IMP1 SM5741 MITC95: 112.5 µM

## CCC[C@H](C(=O)O)[C@H](Cc1ccccc1)c1nnn[nH]1 [Example 4, (S)-2-((S)-2-phenyl-1-(1H-tetrazol-5-yl)ethyl)pentanoic acid]
NDM-1; [5]
  IC50: 49 nM
VIM-1; enzyme 30 pM
  IC50: 14 nM
IMP-1; enzyme 2 pM
  IC50: 380 nM
[1]
  NDM1 EC30005 MITC95: 9.4 µM
[2]; [6]
  VIM1 KP599644 MITC95: 50 µM
[3]; [7]
  IMP1 SM5741 MITC95: >200 µM

## CCC[C@@H](C(=O)O)[C@H](Cc1ccccc1)c1nnn[nH]1 [Example 5, (R)-2-((S)-2-phenyl-1-(1H-tetrazol-5-yl)ethyl)pentanoic acid]
NDM-1; [5]
  IC50: 230 nM
VIM-1; enzyme 30 pM
  IC50: 61 nM
IMP-1; enzyme 2 pM
  IC50: 1500 nM
[1]
  NDM1 EC30005 MITC95: 62.5 µM
[2]; [6]
  VIM1 KP599644 MITC95: 200 µM
[3]; [7]
  IMP1 SM5741 MITC95: >200 µM

## O=C(O)[C@@H](CCCC(F)(F)F)[C@H](Cc1ccccc1)c1nnn[nH]1 [Example 6, (S)-6,6,6-trifluoro-2-((S)-2-phenyl-1-(1H-tetrazol-5-yl)ethyl)hexanoic acid]
NDM-1; [5]
  IC50: 240 nM
VIM-1; enzyme 30 pM
  IC50: 130 nM
IMP-1; enzyme 2 pM
  IC50: 730 nM
[1]
  NDM1 EC30005 MITC95: 75 µM
[2]; [6]
  VIM1 KP599644 MITC95: >200 µM
[3]; [7]
  IMP1 SM5741 MITC95: 106.3 µM

## CCC[C@H](C(=O)O)[C@H](Cc1ccccc1C1=CCC(N)CC1)c1nn[nH]n1 (stereo partly drawn) [Example 449, 2′-((2S,3S)-3-carboxy-2-(2H-tetrazol-5-yl)hexyl)-2,3,4,5-tetrahydro-[1,1′-biphenyl]-4-aminium 2,2,2-trifluoroacetate]
NDM-1; [8]
  IC50: 72.9 nM
VIM-1; VIM-1 enzyme 30 pM
  IC50: 87.2 nM
IMP-1; IMP-1 enzyme 2 pM
  IC50: 8860 nM
[2]; [9]
  VIM1 KP599644 MITC95: 25 µM
[4]
  NDM1 EC30016 MITC95: 9.375 µM
[3]; [10]
  IMP1 SM5741 MITC95: 200 µM

## CC(C)C[C@H](C(=O)O)[C@H](Cc1ccc(C2=CCCNC2)c(F)c1)c1nn[nH]n1 [Example 450, 5-(4-((2S,3S)-3-carboxy-5-methyl-2-(2H-tetrazol-5-yl)hexyl)-2-fluorophenyl)-1,2,3,6-tetrahydropyridin-1-ium 2,2,2-trifluoroacetate]
NDM-1; [8]
  IC50: 88.9 nM
VIM-1; VIM-1 enzyme 30 pM
  IC50: 2.18 nM
IMP-1; IMP-1 enzyme 2 pM
  IC50: 138 nM
[2]; [9]
  VIM1 KP599644 MITC95: 18.75 µM
[4]
  NDM1 EC30016 MITC95: 7.813 µM
[3]; [10]
  IMP1 SM5741 MITC95: 6.25 µM

## CNC1CC=C(c2ccc(C[C@H](c3nn[nH]n3)[C@H](CC(C)C)C(=O)O)cc2F)CC1 (stereo partly drawn) [Example 451, 4′-((2S,3S)-3-carboxy-5-methyl-2-(2H-tetrazol-5-yl)hexyl)-2′-fluoro-N-methyl-2,3,4,5-tetrahydro-[1,1′-biphenyl]-4-aminium 2,2,2-trifluoroacetate]
NDM-1; [8]
  IC50: 30.8 nM
VIM-1; VIM-1 enzyme 30 pM
  IC50: 10.1 nM
IMP-1; IMP-1 enzyme 2 pM
  IC50: 27.2 nM
[2]; [9]
  VIM1 KP599644 MITC95: 25 µM
[4]
  NDM1 EC30016 MITC95: 9.375 µM
[3]; [10]
  IMP1 SM5741 MITC95: 3.125 µM

## CC(C)C[C@H](C(=O)O)[C@H](Cc1ccc(C2=CCNC2)c(F)c1)c1nn[nH]n1 [Example 452, 3-(4-((2S,3S)-3-carboxy-5-methyl-2-(2H-tetrazol-5-yl)hexyl)-2-fluorophenyl)-2,5-dihydro-1H-pyrrol-1-ium 2,2,2-trifluoroacetate]
NDM-1; [8]
  IC50: 93.1 nM
VIM-1; VIM-1 enzyme 30 pM
  IC50: 0.937 nM
IMP-1; IMP-1 enzyme 2 pM
  IC50: 222 nM
[2]; [9]
  VIM1 KP599644 MITC95: 12.5 µM
[4]
  NDM1 EC30016 MITC95: 9.375 µM
[3]; [10]
  IMP1 SM5741 MITC95: 9.375 µM

## CC(C)C[C@H](C(=O)O)[C@H](Cc1ccc(C2=CCNCC2)c(F)c1)c1nn[nH]n1 [Example 453, 4-(4-((2S,3S)-3-carboxy-5-methyl-2-(2H-tetrazol-5-yl)hexyl)-2-fluorophenyl)-1,2,3,6-tetrahydropyridin-1-ium 2,2,2-trifluoroacetate]
NDM-1; NDM1 IC50, NDM-1 enzyme 1 pM
  IC50: 64.5 nM
VIM-1; VIM-1 enzyme 30 pM
  IC50: 2.25 nM
IMP-1; IMP-1 enzyme 2 pM
  IC50: 101 nM
[2]; [9]
  VIM1 KP599644 MITC95: 12.5 µM
[4]
  NDM1 EC30016 MITC95: 6.25 µM
[3]; [10]
  IMP1 SM5741 MITC95: 3.125 µM

## CC(C)C[C@H](C(=O)O)[C@H](Cc1ccc(-c2ccc(CN)cc2)c(F)c1)c1nn[nH]n1 [Example 454, (4′-((2S,3S)-3-carboxy-5-methyl-2-(2H-tetrazol-5-yl)hexyl)-2′-fluoro-[1,1′-biphenyl]-4-yl)methanaminium 2,2,2-trifluoroacetate]
NDM-1; [8]
  IC50: 29.5 nM
VIM-1; VIM-1 enzyme 30 pM
  IC50: 3.52 nM
IMP-1; IMP-1 enzyme 2 pM
  IC50: 24.7 nM
[2]; [9]
  VIM1 KP599644 MITC95: 25 µM
[4]
  NDM1 EC30016 MITC95: 4.688 µM
[3]; [10]
  IMP1 SM5741 MITC95: 1.563 µM

## CC(C)C[C@H](C(=O)O)[C@H](Cc1ccc(C2=CCC(N)CC2)c(F)c1)c1nn[nH]n1 (stereo partly drawn) [Example 455, 4′-((2S,3S)-3-carboxy-5-methyl-2-(2H-tetrazol-5-yl)hexyl)-2′-fluoro-2,3,4,5-tetrahydro-[1,1′-biphenyl]-4-aminium 2,2,2-trifluoroacetate]
NDM-1; [8]
  IC50: 23.4 nM
VIM-1; VIM-1 enzyme 30 pM
  IC50: 3.38 nM
IMP-1; IMP-1 enzyme 2 pM
  IC50: 23.9 nM
[2]; [9]
  VIM1 KP599644 MITC95: 18.75 µM
[4]
  NDM1 EC30016 MITC95: 4.688 µM
[3]; [10]
  IMP1 SM5741 MITC95: 3.125 µM

## CC(C)C[C@H](C(=O)O)[C@H](Cc1ccc(-c2ccc(C(N)=O)cc2)c(F)c1)c1nn[nH]n1 [Example 456, (S)-2-((S)-2-(4′-carbamoyl-2-fluoro-[1,1′-biphenyl]-4-yl)-1-(2H-tetrazol-5-yl)ethyl)-4-methylpentanoic acid]
NDM-1; [8]
  IC50: 4.35 nM
VIM-1; VIM-1 enzyme 30 pM
  IC50: 0.637 nM
IMP-1; IMP-1 enzyme 2 pM
  IC50: 7.09 nM
[2]; [9]
  VIM1 KP599644 MITC95: 37.5 µM
[4]
  NDM1 EC30016 MITC95: 18.75 µM
[3]; [10]
  IMP1 SM5741 MITC95: 0.7813 µM
